Experimental data taken from patent US20100216779A1 (GLAXOSMITHKLINE LLC, priority 2007, published 2010).

Key:
Type in all cases: cell-based
COLO205 (colon) = test: Inhibition of cell proliferation, CellTiter-Glo, COLO205; conditions: Homo sapiens, COLO 205, 72 h
Method in brief: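 Exponentially growing COLO205 cells in medium with 10% FBS were plated below 2000 cells/well at 37 °C, 5% CO2. Untreated wells served as controls.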

[1] = target: T1, human IGF-1R (NIH-3T3 cells over expressing human IGF-1R) (Homo sapiens, UniProt P08069); test: IGF-1R cellular autophosphorylation (DELFIA); conditions: IGF-1 stimulated
T1 construct: expressed in transfected cells; host or cells: NIH-3T3 (mouse fibroblasts)
Method in brief: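 Receptor-overexpressing NIH-3T3, 10% FBS, 37 °C; cpd 30 uM–1.5 nM × 2 h; stim IGF-1 30 ng/mL (IGF-1R) or insulin 3 ug/mL (IR), 15 min; lysate DELFIA, Eu anti-pTyr; % of stimulated signal.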

[2] = target: T2, IR (NIH-3T3 cells over expressing human IGF-1R or IR) (Homo sapiens, UniProt P06213); test: IR cellular autophosphorylation (DELFIA); conditions: NIH-3T3 cells over expressing IR, insulin stimulated
T2 construct: expressed in transfected cells; host or cells: NIH-3T3 (mouse fibroblasts)
Experimental: D. IGF-1R and IR Cellular Autophosphorylation (DELFIA)
NIH-3T3 cells over expressing human IGF-1R or IR were plated in 96-well plates (10,000 cells/well) in culture media containing 10% fetal bovine serum and incubated at 37° C. in a 5% CO2 incubator. Twenty four hours post-plating, cells were treated with different concentrations of test compounds ranging from 30 uM to 1.5 nM. Two hours after compound addition, cells were stimulated with either human IGF-1 (30 ng/mL) or insulin (3 ug/mL) for 15 minutes. Cell lysates are analyzed for phosphorylated receptors using dissociation enhanced lanthanide fluor-immuno assay (DELFIA) with anti-IGF-1R (MAB391, R&D Systems, Minneapolis, Minn.) or anti-IR[…](sc-711, Santa Cruz Biotechnology, Santa Cruz, Calif.) capture antibody and europium-labeled anti-pTyr antibody (Eu-N1 PT66, Perkin Elmer, Waltham, Mass.) for detection. The fluorescence signal for cells treated with compounds was expressed as percent relative to 100% stimulation (IGF-1 or insulin stimulated signal). […]

T1 sequence (P08069 31-1367): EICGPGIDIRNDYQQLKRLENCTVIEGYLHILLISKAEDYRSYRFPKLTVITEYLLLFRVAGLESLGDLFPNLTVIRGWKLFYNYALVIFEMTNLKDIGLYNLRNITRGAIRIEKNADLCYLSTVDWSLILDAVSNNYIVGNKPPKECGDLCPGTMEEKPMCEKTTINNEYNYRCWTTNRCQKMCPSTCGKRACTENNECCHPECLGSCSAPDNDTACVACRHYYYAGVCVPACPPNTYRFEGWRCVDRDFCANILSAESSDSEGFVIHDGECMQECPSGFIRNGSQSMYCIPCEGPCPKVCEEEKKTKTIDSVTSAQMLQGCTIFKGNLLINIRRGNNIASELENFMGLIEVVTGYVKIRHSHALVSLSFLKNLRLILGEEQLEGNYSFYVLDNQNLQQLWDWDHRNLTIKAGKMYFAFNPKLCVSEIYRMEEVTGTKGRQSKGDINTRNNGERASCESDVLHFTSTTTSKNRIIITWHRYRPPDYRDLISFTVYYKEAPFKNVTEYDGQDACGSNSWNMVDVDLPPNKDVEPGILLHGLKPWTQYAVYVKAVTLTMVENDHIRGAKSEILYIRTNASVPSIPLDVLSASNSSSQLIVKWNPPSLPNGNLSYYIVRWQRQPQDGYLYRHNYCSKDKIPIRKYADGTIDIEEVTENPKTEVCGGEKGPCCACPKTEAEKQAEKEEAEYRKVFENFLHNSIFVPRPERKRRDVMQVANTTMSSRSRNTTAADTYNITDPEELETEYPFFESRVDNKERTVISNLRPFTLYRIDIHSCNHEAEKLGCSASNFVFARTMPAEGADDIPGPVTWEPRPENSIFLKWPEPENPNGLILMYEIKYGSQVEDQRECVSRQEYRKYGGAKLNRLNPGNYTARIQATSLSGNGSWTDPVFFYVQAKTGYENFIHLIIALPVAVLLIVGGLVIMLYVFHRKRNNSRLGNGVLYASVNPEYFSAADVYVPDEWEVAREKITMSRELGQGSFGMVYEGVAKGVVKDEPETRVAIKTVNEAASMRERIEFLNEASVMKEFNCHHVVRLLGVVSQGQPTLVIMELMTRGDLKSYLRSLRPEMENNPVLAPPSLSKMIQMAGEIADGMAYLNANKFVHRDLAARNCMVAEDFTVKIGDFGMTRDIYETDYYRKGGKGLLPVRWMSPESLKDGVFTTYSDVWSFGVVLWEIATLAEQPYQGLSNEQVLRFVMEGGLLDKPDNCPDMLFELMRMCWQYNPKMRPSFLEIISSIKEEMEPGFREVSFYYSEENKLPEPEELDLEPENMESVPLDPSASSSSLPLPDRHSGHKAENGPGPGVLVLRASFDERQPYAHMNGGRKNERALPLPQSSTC
T2 sequence (P06213 28-1382): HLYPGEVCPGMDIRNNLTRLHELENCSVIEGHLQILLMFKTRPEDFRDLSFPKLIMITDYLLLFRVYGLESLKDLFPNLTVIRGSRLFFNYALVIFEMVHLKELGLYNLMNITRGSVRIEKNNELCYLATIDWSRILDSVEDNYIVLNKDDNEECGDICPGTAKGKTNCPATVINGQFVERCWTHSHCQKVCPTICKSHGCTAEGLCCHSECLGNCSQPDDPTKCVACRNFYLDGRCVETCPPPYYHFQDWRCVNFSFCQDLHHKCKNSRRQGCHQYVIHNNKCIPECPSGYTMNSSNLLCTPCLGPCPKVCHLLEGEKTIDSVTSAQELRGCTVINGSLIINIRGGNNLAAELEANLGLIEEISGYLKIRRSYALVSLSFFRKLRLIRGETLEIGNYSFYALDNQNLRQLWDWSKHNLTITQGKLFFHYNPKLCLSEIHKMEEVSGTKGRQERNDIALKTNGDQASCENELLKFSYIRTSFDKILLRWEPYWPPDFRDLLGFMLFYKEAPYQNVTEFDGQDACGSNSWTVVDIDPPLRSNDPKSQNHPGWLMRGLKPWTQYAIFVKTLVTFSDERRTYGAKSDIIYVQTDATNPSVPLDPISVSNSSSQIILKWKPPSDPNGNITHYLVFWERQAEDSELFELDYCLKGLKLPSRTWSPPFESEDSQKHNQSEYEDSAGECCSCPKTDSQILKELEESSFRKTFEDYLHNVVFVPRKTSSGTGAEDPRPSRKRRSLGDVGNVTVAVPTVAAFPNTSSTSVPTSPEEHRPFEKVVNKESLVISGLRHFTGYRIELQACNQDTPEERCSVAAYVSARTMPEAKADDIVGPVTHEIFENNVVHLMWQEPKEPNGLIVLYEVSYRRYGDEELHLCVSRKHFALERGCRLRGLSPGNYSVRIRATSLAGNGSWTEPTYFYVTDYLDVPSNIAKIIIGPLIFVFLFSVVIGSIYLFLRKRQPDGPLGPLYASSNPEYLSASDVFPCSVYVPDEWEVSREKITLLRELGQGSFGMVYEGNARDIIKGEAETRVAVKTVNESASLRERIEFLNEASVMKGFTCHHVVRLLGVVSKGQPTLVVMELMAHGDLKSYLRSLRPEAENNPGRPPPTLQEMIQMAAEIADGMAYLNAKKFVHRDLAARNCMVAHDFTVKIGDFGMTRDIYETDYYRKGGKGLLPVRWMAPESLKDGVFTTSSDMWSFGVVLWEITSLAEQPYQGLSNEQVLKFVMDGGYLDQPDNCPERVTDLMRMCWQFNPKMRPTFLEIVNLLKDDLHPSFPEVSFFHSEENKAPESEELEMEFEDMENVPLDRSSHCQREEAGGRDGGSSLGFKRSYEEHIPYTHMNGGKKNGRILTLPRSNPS

Structure (SMILES)	IC50 (COLO205 (colon)) [nM]	IC50 [1] [nM]	IC50 [2] [nM]
COc1cc(N2CCC(N3CCC(C)CC3)CC2)ccc1Nc1nccc(-c2c(-c3cccc(C(=O)Nc4c(F)cccc4F)c3)nc3ccccn23)n1 [Example 46, N-(2,6-difluorophenyl)-3-[3-(2-{[4-(4-methyl-1,4′-bipiperidin-1′-yl)-2-(methyloxy)phenyl]amino}-4-pyrimidinyl)imidazo[1,2-a]pyridin-2-yl]benzamide]	> 1000	100 to 500	100 to 500
COc1cc(N2CCC(N3CCCCCC3)CC2)ccc1Nc1nccc(-c2c(-c3cccc(C(=O)Nc4c(F)cccc4F)c3)nc3ccccn23)n1 [Example 50, N-(2,6-difluorophenyl)-3-[3-(2-{[4-[4-(hexahydro-1H-azepin-1-yl)-1-piperidinyl]-2-(methyloxy)phenyl]amino}-4-pyrimidinyl)imidazo[1,2-a]pyridin-2-yl]benzamide]	250 to 1000	< 100	< 100
Cc1cc(N2CCC(N3CCCCC3)CC2)ccc1Nc1nccc(-c2c(-c3cccc(C(=O)Nc4c(F)cccc4F)c3)nc3ccccn23)n1 [Example 53, 3-[3-(2-{[4-(1,4′-bipiperidin-1′-yl)-2-methylphenyl]amino}-4-pyrimidinyl)imidazo[1,2-a]pyridin-2-yl]-N-(2,6-difluorophenyl)benzamide]	250 to 1000	< 100	100 to 500
COc1ccn2c(-c3ccnc(Nc4ccc(N5CCC(N6CCN(CCF)CC6)CC5)cc4OC)n3)c(-c3cccc(C(=O)Nc4c(F)cccc4F)c3)nc2c1 [Example 62, N-(2,6-difluorophenyl)-3-[3-(2-{[4-{4-[4-(2-fluoroethyl)-1-piperazinyl]-1-piperidinyl}-2-(methyloxy)phenyl]amino}-4-pyrimidinyl)-7-(methyloxy)imidazo[1,2-a]pyridin-2-yl]benzamide]	250 to 1000	< 100	< 100
COc1cc(N2CCC(N3CCCCC3)CC2)ccc1Nc1nccc(-c2c(-c3cccc(C(=O)Nc4ccc(F)cc4F)c3)nc3ccccn23)n1 [Example 72, 3-[3-(2-{[4-(1,4′-bipiperidin-1′-yl)-2-(methyloxy)phenyl]amino}-4-pyrimidinyl)imidazo[1,2-a]pyridin-2-yl]-N-(2,4-difluorophenyl)benzamide]	250 to 1000	< 100	< 100
COc1cc(N2CCC(O)CC2)ccc1Nc1nccc(-c2c(-c3cccc(C(=O)Nc4c(F)cccc4F)c3)nc3ccccn23)n1 [Example 73, N-(2,6-difluorophenyl)-3-[3-(2-{[4-(4-hydroxy-1-piperidinyl)-2-(methyloxy)phenyl]amino}-4-pyrimidinyl)imidazo[1,2-a]pyridin-2-yl]benzamide]	250 to 1000	< 100	100 to 500

The remaining lines, values ahead:

IC50 (COLO205 (colon)) [nM]	IC50 [1] [nM]	IC50 [2] [nM]	Structure (SMILES)
250 to 1000	< 100	100 to 500	COc1cc(N2CCC(N3C[C@@H](C)O[C@@H](C)C3)CC2)ccc1Nc1nccc(-c2c(-c3cccc(C(=O)Nc4c(F)cccc4F)c3)nc3ccccn23)n1 [Example 47, N-(2,6-difluorophenyl)-3-[3-(2-{[4-{4-[(2R,6S)-2,6-dimethyl-4-monpholinyl]-1-piperidinyl}-2-(methyloxy)phenyl]amino}-4-pyrimidinyl)imidazo[1,2-a]pyridin-2-yl]benzamide]
< 250	< 100	< 100	COc1cc(N2CCC(N3CCCC3)CC2)ccc1Nc1nccc(-c2c(-c3cccc(C(=O)Nc4c(F)cccc4F)c3)nc3ccccn23)n1 [Example 78, N-(2,6-difluorophenyl)-3-{3-[2-({2-(methyloxy)-4-[4-(1-pyrrolidinyl)-1-piperidinyl]-phenyl}amino)-4-pyrimidinyl]imidazo[1,2-a]pyridin-2-yl}benzamide]
< 250	< 100	< 100	COc1cc(N2CCC(N3CCN(C)CC3)CC2)ccc1Nc1nccc(-c2c(-c3cccc(C(=O)Nc4c(F)cccc4F)c3)nc3ccccn23)n1 [Example 79, N-(2,6-difluorophenyl)-3-{3-[2-({2-(methyloxy)-4-[4-(4-methyl-1-piperazinyl)-1-piperidinyl]phenyl}amino)-4-pyrimidinyl]imidazo[1,2-a]pyridin-2-yl}benzamide]
